What all share (type): biochemical
The target of assay [1] is T1, Zea mays EPSPS variant L-T at positions 103-107 (Zea mays, UniProt O24566, P106T/T102L).
T1 sequence (O24566 with tags, fused parts or gaps T102L/P106T): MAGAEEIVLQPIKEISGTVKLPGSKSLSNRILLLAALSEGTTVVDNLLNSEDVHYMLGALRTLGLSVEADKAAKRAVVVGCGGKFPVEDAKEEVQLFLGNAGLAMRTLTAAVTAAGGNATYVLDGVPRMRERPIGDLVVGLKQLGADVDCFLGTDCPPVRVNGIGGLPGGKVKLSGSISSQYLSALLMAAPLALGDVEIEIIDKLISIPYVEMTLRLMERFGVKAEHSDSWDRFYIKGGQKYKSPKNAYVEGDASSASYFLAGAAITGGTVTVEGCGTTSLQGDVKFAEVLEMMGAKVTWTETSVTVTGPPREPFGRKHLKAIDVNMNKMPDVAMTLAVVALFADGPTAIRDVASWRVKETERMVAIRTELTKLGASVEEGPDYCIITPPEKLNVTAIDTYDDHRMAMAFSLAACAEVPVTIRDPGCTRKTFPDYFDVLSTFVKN
Description: EPSPS substrate saturation kinetics, maize variant 103L 107T. On the procedure: (§1) EPSPS activity was determined by quantifying the phosphate generated from the EPSPS reaction. Release of inorganic phosphate was coupled to reaction with 2-amino-6-mercapto-7-methylpurine ribonucleoside, catalyzed by purine-nucleoside phosphorylase (M R Webb, Proc. Natl. Acad. Sci. 89:4884-4887, 1992). The absorbance change that occurs was monitored at 360 nm, where the extinction is 11,200 M^−1 cm^−1, with a Spectramax plate reader (Molecular Devices). To determine kinetic parameters, the varied substrate was present at seven concentrations (the eighth being the blank, containing no substrate) ranging from 4 to 400 uM and the unvaried substrate present at saturation. Six microliters of 50-fold concentrated stock solutions of the varied substrate were placed in the wells of the 96-well assay plate and reactions were started with the addition of a mixture containing 25 mM Hepes, pH 7, 100 mM KCl, 0.3 mM 2-amino-6-mercapto-7-methylpurine ribonucleosde, 1 uM (1 unit/ml) purine-nucleoside phosphorylase (Sigma N8264) and 200 uM of the non-varied substrate. Reactions were monitored with a Spectramax plate reader. The Michaelis-Menten kinetics protocol of the Spectramax software was customized for the substrate concentrations used. The software returns values of KM and Vmax using the Lineweaver-Burke transformation of the Michaelis-Menten equation. To determine kcat, Vmax (uM/min) was divided by the enzyme concentration (uM). […] KI was then calculated from the following form of the Michaelis-Menten equation for competitive inhibition: KI=KM[I]/(KM app−KM) KM approximates the dissociation constant of the enzyme-substrate complex while kcat is the rate of conversion of substrate to product when the substrate concentration is saturating. kcat/KM is a widely accepted parameter for catalytic efficiency when substrate concentration is low (˜KM). […] The parameter kcat/KM×KI is used to quantify both catalytic efficiency and insensitivity and thus the overall fitness of the enzyme. […]

Assay [2] concerns the target T2, Zea mays EPSPS variant V-G at positions 103-107 (Zea mays, UniProt O24566, P106G/T102V).
T2 sequence (O24566 with tags, fused parts or gaps T102V/P106G): T1 sequence (O24566 with tags, fused parts or gaps T102L/P106T) with L103V, T107G
Description: EPSPS substrate saturation kinetics, maize variant 103V 107G. On the procedure: as §1

The target in assay [3] is T3, Zea mays EPSPS variant L-A at positions 103-107 (Zea mays, UniProt O24566, P106A/T102L).
T3 sequence (O24566 with tags, fused parts or gaps T102L/P106A): T1 sequence (O24566 with tags, fused parts or gaps T102L/P106T) with T107A
Description: EPSPS substrate saturation kinetics, maize variant 103L 107A. On the procedure: as §1

[4] abbreviates: PEP as substrate, glyphosate as inhibitor.

The structures appear in SMILES notation. Substitutions are numbered along the chain they refer to. pKi: −log10 of the molar value.

These results are taken from patent US11549123B2, “Plant EPSP synthases and methods of use” (PIONEER HI-BRED INTERNATIONAL, INC., priority 2015, dated 2023).

A word on the pKi: it is −log10 of the Ki, conventionally taken in molar units. The low end stands for a large Ki, the high end for a small Ki.

For `O=C(O)CNCP(=O)(O)O` [glyphosate, N-phosphonomethylglycine], the figures for the pKi in assay [1], in assay [2] and in assay [3] were 3.54, 3.32 and 3.33, respectively. Further, the entries for the “(kcat/KM)*KI” value in assay [1] (setting [4]), in assay [2] (setting [4]) and in assay [3] (setting [4]) were 1163, 1170 and 1143, respectively.

In the case of `C=C(OP(=O)(O)O)C(=O)O` [PEP, phosphoenolpyruvate], the kcat in assay [1] (PEP varied) stood at 184; in assay [2] (PEP varied), 324; in assay [3] (PEP varied) it was 125.
